In ChEMBL document CHEMBL1132532, “Correlation of anti-HIV activity with structure: use of electrostatic potential and conformational analysis” (Bioorg Med Chem Lett, 1999):

How the values were obtained:
Format in all cases: functional, cell-based
Conditions in all cases: Homo sapiens
[1] = test system: MT4; assay: The compound was tested for anti HIV-activity (active) against MT-4 cell line
[2] = test system: PBMC; assay: The compound was tested for anti HIV-activity (active) against PBM cell line
[3] = test system: ATH-8 cell line; assay: The compound was tested for anti HIV-activity (active) against ATH8 cell line
[4] = test system: MT2; assay: The compound was tested for anti HIV-activity (active) against MT-2 cell line

Structure (SMILES)	IC50 [1] [µM]	IC50 [3] [µM]	other results
Nc1ncnc2c1ncn2[C@@H]1O[C@H](CO)[C@H]1CO	4		
Nc1ncnc2c1ncn2[C@@H]1CO[C@H](CO)C1			IC50 [2]: 0.67 µM
Nc1ncnc2c1ncn2[C@@H]1C[C@H](CO)CO1	> 200		
Nc1ncnc2c1ncn2[C@H]1C[C@@H](CO)CO1	> 200		
Nc1ncnc2c1ncn2[C@H]1CO[C@@H](CO)C1	43	15	
Nc1nc(O)c2ncn(C3C=CC(CO)O3)c2n1 (stereo not drawn)		0.19	IC50 [4]: 0.19 µM
Nc1nc(O)c2ncn(C3COC(CO)C3)c2n1 (stereo not drawn)	> 200		
Nc1ccn(C2COC(CO)C2)c(=O)n1 (stereo not drawn)	> 200		
Cc1cn(C2COC(CO)C2)c(=O)[nH]c1=O (stereo not drawn)	> 200		
Cc1cn([C@H]2C[C@H](N=[N+]=[N-])[C@@H](CO)O2)c(=O)[nH]c1=O [ZIDOVUDINE]		0.4	IC50 [2]: 0.004 µM
